# Assay results published in article PMC10914731, “Homo-BacPROTAC-induced degradation of ClpC1 as a strategy against drug-resistant mycobacteria” (Nature Communications, 2024).
# Where “and” joins values, the source holds several entries; their conditions need not be identical. Equal values may be shown once. Read-outs that look alike come from different tables or passages of the source. Where a SMILES comes first, the peptide text is derived from it. [ ]: non-standard residue; d: D form. Trp(1-(1,1-Me2-allyl)) = C=CC(C)(C)n1cc(C[C@H](N)C(=O)O)c2ccccc21; Ala(3R-Me,3-isobutenyl) = CC(C)=C[C@@H](C)[C@H](N)C(=O)O; NMeLeu(5-OH,4R) = CN[C@@H](C[C@@H](C)CO)C(=O)O; Phe(βR-OMe) = CO[C@H](c1ccccc1)[C@H](N)C(=O)O; NMeL = CN[C@@H](CC(C)C)C(=O)O
# Columns and labels:
# in vitro = details: human
# Procedure, shortened: (§1)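 Permeability across Caco-2 monolayers was measured in both directions, apical-to-basolateral and basolateral-to-apical, in 10^-6 cm s-1. Efflux ratio = P(B−A)/P(A−B). Intrinsic permeability is the mean of P(A−B) and P(B−A).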
# Caco-2 monolayers = assay: in vitro; details: human, Caco-2
# Procedure, shortened: as §1
# [1] = target: ClpC1-NTD substrate, M. tuberculosis ClpC1P1P2 (Mycobacterium tuberculosis, UniProt P9WPC9); assay: biochemical; assay type: biochemical; details: Mtb
# Chain of ClpC1-NTD substrate, M. tuberculosis ClpC1P1P2 (P9WPC5 whole entry): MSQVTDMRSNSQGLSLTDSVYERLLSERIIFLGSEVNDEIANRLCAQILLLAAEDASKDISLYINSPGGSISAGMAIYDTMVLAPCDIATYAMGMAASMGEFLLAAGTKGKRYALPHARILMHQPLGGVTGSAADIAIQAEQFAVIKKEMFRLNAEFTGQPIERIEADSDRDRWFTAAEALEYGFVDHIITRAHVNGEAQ
# Chain of ClpC1-NTD substrate, M. tuberculosis ClpC1P1P2 (P9WPC9 whole entry): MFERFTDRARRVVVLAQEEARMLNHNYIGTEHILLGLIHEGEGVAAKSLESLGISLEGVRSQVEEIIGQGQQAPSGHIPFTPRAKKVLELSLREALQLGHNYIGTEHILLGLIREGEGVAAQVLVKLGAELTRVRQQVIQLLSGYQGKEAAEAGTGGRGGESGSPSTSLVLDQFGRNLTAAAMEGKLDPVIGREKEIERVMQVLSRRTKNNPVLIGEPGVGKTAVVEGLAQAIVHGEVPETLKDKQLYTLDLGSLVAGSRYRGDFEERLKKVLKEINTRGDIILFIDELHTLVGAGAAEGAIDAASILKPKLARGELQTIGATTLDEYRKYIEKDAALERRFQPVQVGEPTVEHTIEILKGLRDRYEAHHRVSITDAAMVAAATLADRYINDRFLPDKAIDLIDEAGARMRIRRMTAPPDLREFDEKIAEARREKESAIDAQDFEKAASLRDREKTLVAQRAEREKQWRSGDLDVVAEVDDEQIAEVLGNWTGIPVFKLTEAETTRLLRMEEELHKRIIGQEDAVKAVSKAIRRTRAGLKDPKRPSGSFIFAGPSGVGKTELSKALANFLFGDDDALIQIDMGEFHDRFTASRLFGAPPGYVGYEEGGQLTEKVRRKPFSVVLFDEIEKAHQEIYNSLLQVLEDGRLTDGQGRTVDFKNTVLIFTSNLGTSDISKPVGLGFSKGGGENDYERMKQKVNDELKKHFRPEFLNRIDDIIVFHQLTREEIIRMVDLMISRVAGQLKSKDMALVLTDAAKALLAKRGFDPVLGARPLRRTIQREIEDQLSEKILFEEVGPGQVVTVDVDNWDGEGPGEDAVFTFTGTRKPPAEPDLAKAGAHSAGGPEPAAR
# Chain of ClpC1-NTD substrate, M. tuberculosis ClpC1P1P2 (P9WPC3 whole entry, further chain): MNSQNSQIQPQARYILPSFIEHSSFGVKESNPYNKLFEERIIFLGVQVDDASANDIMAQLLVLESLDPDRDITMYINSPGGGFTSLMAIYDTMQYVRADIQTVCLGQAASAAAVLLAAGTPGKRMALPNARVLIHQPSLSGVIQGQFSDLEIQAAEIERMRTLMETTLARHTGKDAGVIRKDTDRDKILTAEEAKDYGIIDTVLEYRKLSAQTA
# [2] = Microsomal stability, human; assay type: in vitro ADME; details: for Microsomal Stability Human: clearance in microsomes
# Procedure, shortened: (§2)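 1 µmol/l cpd + 0.5 mg/ml microsomes, Tris-HCl 100 mM pH 7.5 / MgCl2 6.5 mM / NADPH 1 mM, 37 °C. Timed acetonitrile quench, spin, supernatant by HPLC-MS/MS. t1/2 from first-order decay → clearance %Qh, well-stirred model.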
# [3] = target: His6-tagged ClpC1-NTD substrate, M. smegmatis ClpC1P1P2 (UniProt A0R574+P9WPC9); assay: biochemical; assay type: biochemical; details: for DC50: Msm; for % Response / ClpC1-NTD peak area: Figure 4a source data, well replicates
# Chain of His6-tagged ClpC1-NTD substrate, M. smegmatis ClpC1P1P2 (P9WPC9 1-156, looked up, natural form): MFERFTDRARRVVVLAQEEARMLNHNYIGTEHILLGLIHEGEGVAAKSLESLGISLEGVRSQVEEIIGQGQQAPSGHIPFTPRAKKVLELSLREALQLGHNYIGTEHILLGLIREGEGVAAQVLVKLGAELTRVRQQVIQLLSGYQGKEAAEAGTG
# Chain of His6-tagged ClpC1-NTD substrate, M. smegmatis ClpC1P1P2 (A0R574 whole entry): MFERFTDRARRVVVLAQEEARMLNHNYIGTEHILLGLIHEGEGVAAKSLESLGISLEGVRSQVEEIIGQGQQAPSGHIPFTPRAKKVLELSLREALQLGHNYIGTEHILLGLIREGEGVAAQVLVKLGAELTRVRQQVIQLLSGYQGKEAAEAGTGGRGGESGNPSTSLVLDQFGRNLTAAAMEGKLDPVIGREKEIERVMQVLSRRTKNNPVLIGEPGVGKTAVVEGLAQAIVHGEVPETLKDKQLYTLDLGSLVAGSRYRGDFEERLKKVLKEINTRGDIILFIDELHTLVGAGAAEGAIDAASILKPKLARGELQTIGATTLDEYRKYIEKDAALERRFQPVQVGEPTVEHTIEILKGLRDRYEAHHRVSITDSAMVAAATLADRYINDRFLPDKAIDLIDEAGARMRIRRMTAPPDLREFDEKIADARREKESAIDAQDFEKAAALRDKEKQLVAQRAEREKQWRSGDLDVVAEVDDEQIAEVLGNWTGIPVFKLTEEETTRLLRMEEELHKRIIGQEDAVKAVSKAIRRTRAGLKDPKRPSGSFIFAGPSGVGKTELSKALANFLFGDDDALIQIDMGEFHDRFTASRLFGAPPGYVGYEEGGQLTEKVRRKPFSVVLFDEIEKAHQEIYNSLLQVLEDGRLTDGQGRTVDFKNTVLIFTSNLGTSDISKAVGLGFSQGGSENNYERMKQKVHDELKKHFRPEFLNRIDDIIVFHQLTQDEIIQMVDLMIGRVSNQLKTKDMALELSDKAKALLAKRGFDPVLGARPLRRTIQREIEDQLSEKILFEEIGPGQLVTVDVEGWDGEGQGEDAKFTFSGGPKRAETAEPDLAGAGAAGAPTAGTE
# [4] = assay type: in vitro ADME, Rat; details: rat, pH 7.4
# [5] = system: M. tuberculosis H37Rv (ATCC 27294); assay: microbe, parasite or virus in culture; assay type: cell-based
# [6] = target: ClpC1 NTD protein (M. tuberculosis) (Mycobacterium tuberculosis, UniProt P9WPC9); assay: biochemical; assay type: binding
# Chain of ClpC1 NTD protein (M. tuberculosis) (P9WPC9 1-156, looked up, natural form): as the sequence (P9WPC9 1-156, looked up, natural form) above
# Msm 607 = assay: microbe, parasite or virus in culture; assay type: cell-based; details: for Msm 607 MIC: single determinations
# [7] = target: endogenous ClpC1 in Msm #607 cells (Mycolicibacterium smegmatis, UniProt A0R574); assay type: cell-based, M. smegmatis
# Chain of endogenous ClpC1 in Msm #607 cells (A0R574 whole entry): as the sequence (A0R574 whole entry) above
# [8] = assay type: in vitro ADME, Mice; details: for Microsomal Stability Mice: clearance in microsomes
# Procedure, shortened: as §2
# [9] = assay type: in vitro ADME, Rat; details: for Microsomal Stability Rat: clearance in microsomes
# Procedure, shortened: as §2
# [10] = Hepatocyte stability, mice; assay type: in vitro ADME; details: mouse, pH 7.4
# Procedure, shortened: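 1 µM cpd (DMSO <0.05% final), cryopreserved hepatocytes ~1e6 cells/mL, 50% serum, pH 7.4, 37 °C/5–10% CO2; up to 6 h, 6 timepoints; ACN quench, HPLC-MS/MS; t1/2 → CL via well-stirred model, % Qh.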
# [11] = assay type: in vitro ADME, Human; details: human, pH 7.4
# [12] = system: Mtb H37Rv in THP-1 macrophages; assay: Intracellular MIC assay in THP-1 macrophages; assay type: cell-based, Mycobacterium tuberculosis; set-up: Emax: unit not given here
# [13] = mean of the measurements, read-out: DC50, Mean
# [14] = Mycobacterium tuberculosis, Mtb H37Rv (Supplementary Table 2), read-out: MIC Mtb
# [15] = Mycobacterium tuberculosis, single determinations, read-out: Mtb MIC
# [16] = single determinations, read-out: Mtb MIC
# [17] = SPR (Supplementary Table 1), read-out: KD ClpC1-NTD Mean ± SD
# [18] = SPR, single independent measurements, read-out: KD ClpC1-NTD
# [19] = Mycolicibacterium smegmatis, 607, read-out: MIC Msm 607
# [20] = Mycolicibacterium smegmatis, 607, read-out: Msm 607 MIC, single determinations
compound,measurement,setting,value
"C=CC(C)(C)n1cc(C[C@@H]2NC(=O)[C@H]([C@H](C)C=C(C)C)NC(=O)[C@H](CC(C)C)N(C)C(=O)[C@H](C(C)C)NC(=O)[C@H]([C@H](OC)c3ccccc3)NC(=O)[C@H](C)NC(=O)[C@H](C[C@@H](C)CO)N(C)C2=O)c2ccccc21 [dCymC] (cyclo([Trp(1-(1,1-Me2-allyl))][NMeLeu(5-OH,4R)]A[Phe(βR-OMe)]V[NMeL][Ala(3R-Me,3-isobutenyl)]))",efflux ratio,in vitro; Caco-2,3
same,Papp B→A,"in vitro; Caco-2, CACO permeability PEBA",2.6 ×10⁻⁶ cm/s
same,Papp A→B,"in vitro; Caco-2, Caco-2 permeability P (A-B)",1.3 ×10⁻⁶ cm/s
same,Papp B→A,"in vitro; Caco-2, Caco-2 permeability P (B-A)",3.1 ×10⁻⁶ cm/s
same,Caco-2 Int. Perm,Caco-2 monolayers,2.2
same,Influence of N-methylation on permeability,Caco-2 monolayers,1.6
same,DC50,"[1]; Measurement 1-4, read-out: DC50, single measurements",> 100000 nM
same,DC50,[1]; [13],> 100000 nM
same,Microsomal Stability Human QH,[2],65.700%
same,Microsomal Stability Human,[2],66 %Qh
same,DC50,"[3]; Measurement 1-6, read-out: DC50, single measurements",> 100000 nM
same,DC50,[3]; [13],> 100000 nM
same,degradation of the His6-tagged ClpC1-NTD substrate,"[3]; cell-free, result in words",did not cause any degradation
same,% Response,[3]; conc. 0.4 µM,106.994% and 100.864% and 100.549% and 126.212% and 118.079% and 125.703% and 101.139% and 105.018% and 104.304%
same,ClpC1-NTD peak area,[3]; conc. 0.4 µM,974818 and 1343173 and 762481 and 700950 and 757234 and 818245 and 783567 and 770572 and 1135273
same,% Response,[3]; conc. 33.3 µM,107.525% and 103.829% and 103.089% and 121.205% and 120.164% and 127.4% and 120.436% and 100.085% and 97.8128%
same,ClpC1-NTD peak area,[3]; conc. 33.3 µM,1099272 and 1301491 and 948418 and 890861 and 865884 and 830598 and 816002 and 754560 and 1171647
same,% Response,[3]; conc. 100.0 µM,99.5642% and 103.437% and 105.517% and 119.388% and 117.765% and 125.04% and 101.258% and 115.542% and 91.4636%
same,ClpC1-NTD peak area,[3]; conc. 100.0 µM,1282982 and 1406378 and 1339163 and 984807 and 916165 and 1033433 and 896176 and 856679 and 1974349
same,Hepatocyte Rat,[4],55 %Qh
same,Hepatocyte Stability Rat QH,[4],55.000%
same,MIC,"[5]; Mycobacterium tuberculosis, M. tuberculosis H37Rv strain, read-out: MIC Mtb H37Rv Mean ± SD",0.4 ± 0.1 µM
same,MIC,[5]; [14],0.4 ± 0.1 µM
same,MIC,"[5]; Mycobacterium tuberculosis, individual measurements (source data), read-out: Mtb MIC",0.39 µM
same,MIC,[5]; [15],0.39 µM
same,MIC,"[5]; individual measurements (source data), read-out: Mtb MIC",0.390 µM and 0.600 µM and 0.300 µM
same,MIC,[5]; [16],0.600 µM and 0.300 µM
same,Kd,[6]; [17],1.1 ± 0.4 nM
same,Kd,"[6]; SPR, individual measurements (source data), read-out: KD ClpC1-NTD",2.02 nM and 1.58 nM and 1.15 nM (5×) and 0.995 nM and 1.06 nM (3×) and 1.21 nM (2×) and 1.23 nM (3×) and 0.859 nM and 1.01 nM (4×) and 1.13 nM (2×) and 1.16 nM (5×) and 0.401 nM and 0.981 nM and 0.95 nM and 1.03 nM and 0.866 nM and 1.14 nM (2×) and 1.54 nM and 0.99 nM and 1.26 nM and 1.53 nM (2×) and 1.07 nM (3×) and 1.05 nM (3×) and 1.09 nM (4×) and 1.84 nM and 1.39 nM (2×) and 1.44 nM and 1.47 nM (2×) and 0.934 nM and 1.1 nM (3×) and 0.723 nM and 2.22 nM and 0.892 nM and 0.91 nM and 1.75 nM (3×) and 0.741 nM and 0.702 nM and 1.25 nM (2×) and 0.729 nM and 0.721 nM and 1.67 nM and 1.63 nM and 1.37 nM and 1.92 nM and 1.99 nM and 1.17 nM and 1.08 nM (3×) and 0.583 nM and 1.11 nM (4×) and 0.666 nM and 0.718 nM and 0.833 nM and 0.74 nM and 0.783 nM and 0.822 nM and 0.734 nM and 0.671 nM and 1.6 nM and 1.52 nM (2×) and 1.45 nM (3×) and 1.33 nM (3×) and 1.28 nM (2×) and 1.31 nM and 0.952 nM (2×) and 0.854 nM and 1.2 nM (3×) and 0.728 nM and 0.717 nM and 1.59 nM and 1.51 nM and 0.903 nM and 0.9 nM (2×) and 0.985 nM and 1.18 nM and 0.911 nM and 0.904 nM and 1.12 nM and 0.85 nM and 0.908 nM and 1.02 nM and 3.37 nM and 0.912 nM and 0.781 nM and 0.973 nM and 0.999 nM and 0.958 nM and 0.76 nM and 0.886 nM and 0.843 nM and 1.04 nM (4×) and 1.24 nM and 0.917 nM and 0.907 nM and 0.838 nM
same,Kd,[6]; [18],1.15 nM (5×) and 1.06 nM (3×) and 1.21 nM (2×) and 1.23 nM (3×) and 1.01 nM (4×) and 1.13 nM (2×) and 1.16 nM (5×) and 1.14 nM (2×) and 1.53 nM (2×) and 1.07 nM (3×) and 1.05 nM (3×) and 1.09 nM (4×) and 1.39 nM (2×) and 1.47 nM (2×) and 1.1 nM (3×) and 1.75 nM (3×) and 1.25 nM (2×) and 1.08 nM (3×) and 1.11 nM (4×) and 1.52 nM (2×) and 1.45 nM (3×) and 1.33 nM (3×) and 1.28 nM (2×) and 0.952 nM (2×) and 1.2 nM (3×) and 0.9 nM (2×) and 1.04 nM (4×)
same,Kd,"[6]; SPR, read-out: ClpC1-NTD KD Mean ± SD",1.1 ± 0.4 nM
same,MIC,Msm 607; [19],2.8 ± 0.4 µM
same,MIC,Msm 607; [20],3.12 µM
same,Msm 607 MIC,Msm 607,2.500 µM
same,ClpC1 peak area,"[7]; 100 µM, Figure 5c, well replicates of 3 experiments",516046 and 317875 and 398263 and 302242 and 500156 and 40170.6 and 421518 and 401814 and 368135
same,intracellular degradation of ClpC1,"[7]; Msm #607, 24 h, result in words",did not induce degradation of ClpC1
same,Microsomal Stability Mouse QH,[8],56.100%
same,Microsomal Stability Mice,[8],56 %Qh
same,Microsomal Stability Rat QH,[9],38.300%
same,Microsomal Stability Rat,[9],38 %Qh
same,Hepatocyte Mice,[10],46 %Qh
same,Hepatocyte Human,[11],36 %Qh
same,Hepatocyte Stability Human QH,[11],38.000%
CO[C@H](c1ccccc1)[C@@H]1NC(=O)[C@H](C)NC(=O)[C@H](C[C@@H](C)CO)N(C)C(=O)[C@H](Cc2cn(Cc3cn(CCOCCOCCOCCn4cc(Cn5cc(C[C@@H]6NC(=O)[C@H](C(C)C)NC(=O)[C@H](CC(C)C)N(C)C(=O)[C@H](C(C)C)NC(=O)[C@H]([C@H](OC)c7ccccc7)NC(=O)[C@H](C)NC(=O)[C@H](C[C@@H](C)CO)N(C)C6=O)c6ccccc65)nn4)nn3)c3ccccc23)NC(=O)[C@H](C(C)C)NC(=O)[C@H](CC(C)C)N(C)C(=O)[C@H](C(C)C)NC1=O [Compound 7],Microsomal Stability Human QH,[2],> 88.4% and 86.5%
same,Microsomal Stability Human,[2],88 %Qh
same,MIC,[5]; [14],0.1 µM
same,MIC,[5]; [15],0.098 µM
same,MIC,[5]; [16],0.156 µM
same,Emax,[12],1.22
same,intracellular viable mycobacteria,"[12]; 0.19µM, Day 4, well replicates",5.34 log10 cfu/ml
same,intracellular viable mycobacteria,"[12]; 0.19µM, Day 7, well replicates",5.68 log10 cfu/ml
same,intracellular viable mycobacteria,"[12]; 0.781µM, Day 4, well replicates",4.98 log10 cfu/ml
same,intracellular viable mycobacteria,"[12]; 0.781µM, Day 7, well replicates",4.98 log10 cfu/ml
same,intracellular viable mycobacteria,"[12]; 3.125µM, Day 4, well replicates",4.75 log10 cfu/ml
same,intracellular viable mycobacteria,"[12]; 3.125µM, Day 7, well replicates",4.56 log10 cfu/ml
same,intracellular viable mycobacteria,"[12]; 50µM, Day 4, well replicates",4.39 log10 cfu/ml and 4.51 log10 cfu/ml
same,intracellular viable mycobacteria,"[12]; 50µM, Day 7, well replicates",3.96 log10 cfu/ml
same,Kd,[6]; [17],0.46 ± 0.05 nM
same,koff,"[6]; SPR dissociation rate constant, read-out: koff ClpC1-NTD Mean ± SD",0.001 s⁻¹
same,koff ClpC1-NTD,"[6]; SPR, single independent measurements",0.001 s⁻¹ and 0.0008 s⁻¹ and 0.0006 s⁻¹
same,Kd,[6]; [18],0.473 nM and 0.459 nM and 0.508 nM and 0.398 nM
same,koff,"[6]; SPR, single independent measurements, read-out: koff ClpC1-NTD",0.001 s⁻¹
same,MIC,Msm 607; [19],1.4 ± 0.2 µM
same,MIC,Msm 607; [20],1.56 µM
same,Msm 607 MIC,Msm 607,1.250 µM
same,Microsomal Stability Mouse QH,[8],58.9% and 48.2%
same,Microsomal Stability Mice,[8],53 %Qh
same,Microsomal Stability Rat QH,[9],41.7% and 36.7%
same,Microsomal Stability Rat,[9],40 %Qh
